Like-named read-outs stand apart in the source and are kept apart here.
Tests used:
PKCζ = molecular target: T1, PKCζ (Homo sapiens, UniProt Q05513); experiment: 26-kinase panel mobility shift assay, single concentration; format: biochemical; details: read-out: % Inhibition PKC
T1 construct: purchased Perkin Elmer (ProfilerPro assay kit 1)
T1 sequence (Q05513 1-592): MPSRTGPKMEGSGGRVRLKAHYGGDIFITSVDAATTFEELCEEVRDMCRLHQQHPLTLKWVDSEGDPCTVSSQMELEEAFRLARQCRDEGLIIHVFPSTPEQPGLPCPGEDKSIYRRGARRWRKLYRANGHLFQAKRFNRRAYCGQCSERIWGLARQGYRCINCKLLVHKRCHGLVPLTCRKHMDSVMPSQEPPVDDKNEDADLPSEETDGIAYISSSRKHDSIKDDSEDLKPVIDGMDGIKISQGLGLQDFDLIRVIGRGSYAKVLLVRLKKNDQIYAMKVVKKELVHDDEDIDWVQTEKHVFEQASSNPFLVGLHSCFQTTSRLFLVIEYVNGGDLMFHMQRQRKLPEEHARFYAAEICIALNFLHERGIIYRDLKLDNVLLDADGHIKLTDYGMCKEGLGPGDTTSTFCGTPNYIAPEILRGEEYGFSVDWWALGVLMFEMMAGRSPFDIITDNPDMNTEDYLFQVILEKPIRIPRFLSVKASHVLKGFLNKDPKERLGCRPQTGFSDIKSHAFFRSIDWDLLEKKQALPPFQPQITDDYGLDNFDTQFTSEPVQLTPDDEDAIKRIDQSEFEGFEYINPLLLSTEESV
Method: (§1) In order to test the biochemical activity of our fragment library, a panel of 26 structurally diverse protein kinases was used.
Mobility Shift Assay Protocol
(§2) Screening of 26 kinases using a mobility shift assay
(§3) A mobility shift assay to determine kinase inhibition was carried out using a
(§4) modified version of the ProfilerPro assay kit 1 (Perkin Elmer, Coventry, UK)
(§5) including MPS1 and Aurora B. Each kit contained an enzyme plate, a substrate
(§6) plate, reconstitution buffer, 1 M DTT, protease inhibitor cocktail and termination
(§7) buffer. Test compounds were added as a solution in DMSO.
final concentration. […] The
(§8) peptide phosphorylation assay was carried out as per the manufacturer’s
(§9) instructions. The electrophoretic separation and analysis of the phosphorylated
(§10) and non-phosphorylated peptides was carried out on a 4-sipper chip using a
(§11) LabChip EZReader II (Perkin Elmer). Results were expressed as % inhibition of
(§12) peptide phosphorylation relative to control wells for 0 % (no test compound) and
(§13) 100 % (no ATP) inhibition. The percentage inhibition was calculated using the
(§14) % Inhibition = [1 - (% Conversion Sample / % Conversion 0% Inhibition Control)] x 100

MPS1 [1] = molecular target: T2, MPS1 (Homo sapiens, UniProt P33981); experiment: biochemical; details: read-out: % Inhibition MPS1
T2 sequence (P33981 1-857): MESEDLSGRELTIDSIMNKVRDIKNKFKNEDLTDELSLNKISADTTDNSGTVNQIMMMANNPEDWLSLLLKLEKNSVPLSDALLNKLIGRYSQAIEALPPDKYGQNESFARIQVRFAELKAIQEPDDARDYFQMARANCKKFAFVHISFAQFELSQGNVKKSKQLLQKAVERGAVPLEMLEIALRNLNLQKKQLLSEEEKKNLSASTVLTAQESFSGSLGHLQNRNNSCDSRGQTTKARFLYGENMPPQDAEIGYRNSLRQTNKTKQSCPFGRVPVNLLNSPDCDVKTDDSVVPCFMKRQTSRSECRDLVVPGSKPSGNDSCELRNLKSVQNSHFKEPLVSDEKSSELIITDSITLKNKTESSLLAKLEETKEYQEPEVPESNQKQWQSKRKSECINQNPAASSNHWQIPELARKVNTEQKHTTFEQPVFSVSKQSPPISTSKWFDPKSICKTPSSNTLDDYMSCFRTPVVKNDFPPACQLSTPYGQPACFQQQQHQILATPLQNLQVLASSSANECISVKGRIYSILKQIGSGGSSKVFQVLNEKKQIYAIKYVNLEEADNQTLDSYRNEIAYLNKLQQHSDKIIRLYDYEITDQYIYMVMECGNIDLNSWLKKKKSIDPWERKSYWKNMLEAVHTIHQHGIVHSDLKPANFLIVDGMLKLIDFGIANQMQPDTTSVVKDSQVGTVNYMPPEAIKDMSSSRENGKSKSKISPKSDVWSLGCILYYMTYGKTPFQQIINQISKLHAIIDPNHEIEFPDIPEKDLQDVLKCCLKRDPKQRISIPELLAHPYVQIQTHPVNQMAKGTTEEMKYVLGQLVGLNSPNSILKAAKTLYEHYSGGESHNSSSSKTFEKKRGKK
Method: as §1, §2, §3, §4, §5, §6, §7, §8, §9, §10, §11, §12, §13, §14

Aurora B = Aurora B (Homo sapiens, UniProt Q96GD4); format: biochemical; details: for Ki: calculated from mean IC50 using the Cheng-Prusoff equation, read-out: AurB Ki; for AurB ligand efficiency (LE): from Ki;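 as to all read-outs here: aurora B inhibition measured in a mobility shift assay, underlying mean IC50 taken from two independent duplicate runs at 8 compound concentrations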
Aurora B, sequence (Q96GD4 whole entry): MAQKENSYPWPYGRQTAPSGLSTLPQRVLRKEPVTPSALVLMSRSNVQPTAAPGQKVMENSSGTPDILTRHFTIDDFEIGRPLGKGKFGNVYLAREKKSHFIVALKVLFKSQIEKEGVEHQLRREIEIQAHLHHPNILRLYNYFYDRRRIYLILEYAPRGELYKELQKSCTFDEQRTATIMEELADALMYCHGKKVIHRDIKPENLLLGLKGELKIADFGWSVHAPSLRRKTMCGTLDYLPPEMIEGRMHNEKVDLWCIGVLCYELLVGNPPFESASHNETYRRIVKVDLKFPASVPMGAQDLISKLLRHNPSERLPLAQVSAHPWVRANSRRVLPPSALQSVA
Method: (§15) IC50 values were obtained for an expanded version of the fragment library using the previously described mobility shift assay.[44] Subsequently, Ki values were estimated from IC50 values to allow better comparison of the activity against targets which were measured at different substrate concentrations (Supplementary data Table 1).
(§16) IC50 values for MPS1, Aurora A and Aurora B inhibition were determined as previously described,[44] and Ki values were estimated from the mean IC50 values using the Cheng-Prusoff equation.[48]
(§17) Kinase [ATP] (M) [Enzyme] (nM) [Peptide Substrate] (M) MgCl2 (mM)
(§18) For all compounds, IC50 values for MPS1, Aurora A, and Aurora B were determined
(§19) using MPS1 and Aurora A/B mobility shift assays as described previously.1 IC50
(§20) values were calculated from a four-parameter logistic fit of percentage inhibition
(§21) versus concentration (at 8 compound concentrations) using GraphPad Prism 5
(§22) (GraphPad Software, Inc., CA, USA). Mean IC50 values were determined from two
(§23) independent measurements each carried out in duplicate. Ki values were estimated
(§24) from the mean IC50 values using the Cheng-Prusoff equation.

Aurora A = molecular target: T3, Aurora A (Homo sapiens, UniProt O14965); format: biochemical; details: for Ki: calculated from mean IC50 using the Cheng-Prusoff equation, read-out: AurA Ki; for AurA ligand efficiency (LE): from Ki
T3 sequence (O14965 1-403): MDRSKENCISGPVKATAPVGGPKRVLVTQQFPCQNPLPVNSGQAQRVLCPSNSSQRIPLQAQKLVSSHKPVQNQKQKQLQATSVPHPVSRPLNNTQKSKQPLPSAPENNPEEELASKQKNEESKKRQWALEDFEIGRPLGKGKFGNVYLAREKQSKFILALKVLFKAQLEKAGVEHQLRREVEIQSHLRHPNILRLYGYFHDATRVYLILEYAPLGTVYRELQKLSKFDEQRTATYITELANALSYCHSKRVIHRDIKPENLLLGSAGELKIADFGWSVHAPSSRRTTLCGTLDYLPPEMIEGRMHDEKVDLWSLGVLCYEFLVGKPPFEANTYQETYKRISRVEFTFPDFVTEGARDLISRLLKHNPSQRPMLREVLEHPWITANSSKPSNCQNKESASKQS
Method: as §15, §16, §17, §18, §19, §20, §21, §22, §23, §24

CHK1 = molecular target: T4, CHK1 (Homo sapiens, UniProt O14757); experiment: 26-kinase panel mobility shift assay, single concentration; format: biochemical; details: read-out: % Inhibition CHK1
T4 construct: purchased Perkin Elmer ProfilerPro assay kit 1
T4 sequence (O14757 1-476): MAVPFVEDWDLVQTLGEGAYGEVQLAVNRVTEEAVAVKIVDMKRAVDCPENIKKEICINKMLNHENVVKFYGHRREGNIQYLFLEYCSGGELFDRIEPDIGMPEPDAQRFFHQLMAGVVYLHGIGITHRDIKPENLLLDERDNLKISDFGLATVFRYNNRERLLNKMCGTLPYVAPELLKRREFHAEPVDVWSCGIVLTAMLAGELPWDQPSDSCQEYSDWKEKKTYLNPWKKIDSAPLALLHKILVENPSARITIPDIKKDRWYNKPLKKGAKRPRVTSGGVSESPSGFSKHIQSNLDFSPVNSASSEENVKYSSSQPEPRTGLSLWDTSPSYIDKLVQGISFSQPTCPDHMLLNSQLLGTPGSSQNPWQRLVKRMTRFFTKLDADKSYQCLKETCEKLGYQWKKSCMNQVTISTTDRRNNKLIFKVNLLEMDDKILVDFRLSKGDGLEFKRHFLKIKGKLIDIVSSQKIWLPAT
Method: as §3, §4, §5, §6, §7, §8, §9, §10, §11, §12, §13, §14

MPS1 [2] = molecular target: T2, MPS1; format: biochemical; details: for Ki: calculated from mean IC50 using the Cheng-Prusoff equation; for MPS1 ligand efficiency (LE): from Ki
Method: as §15, §16, §17, §18, §19, §20, §21, §22, §23, §24

Structure (SMILES)	inhibition at 100 µM (PKCζ) [%]	inhibition at 100 µM (MPS1 [1]) [%]	Ki (Aurora B) [µM]	AurB ligand efficiency (LE) (Aurora B)	Ki (Aurora A) [µM]	AurA ligand efficiency (LE) (Aurora A)	inhibition at 100 µM (CHK1) [%]	Ki (MPS1 [2]) [µM]	inhibition at 100 µM (MPS1 [1]; compound at 100 µM) [%]	MPS1 ligand efficiency (LE) (MPS1 [2])	inhibition at 30 µM (PKCζ) [%]	inhibition at 30 µM (MPS1 [1]; compound at 30 µM) [%]	inhibition at 30 µM (CHK1) [%]	fold increase in inhibitory activity against MPS1 relative to compound 3 (MPS1 [2]; from Ki values, Table 1 and Table 2) [fold]	inhibition at 30 µM (MPS1 [1]) [%]
Nc1ccc[nH]c1=O [Compound 1, 3-aminopyridin-2-one]	27	0	160	0.64	361	0.59	37	> 1000	–	–	–	–	–	–	–
Cn1cc(-c2c[nH]c(=O)c(N)c2)cn1 [Compound 2, 3-Amino-5-(1-methyl-1H-pyrazol-4-yl)pyridin-2(1H)-one]	83	–	3.2	0.53	7.5	0.53	77	94.7	41	0.39	–	–	–	–	–
COc1ncc(-c2ccncc2)cc1N [Compound 5, 6-Methoxy-3,4′-bipyridin-5-amine]	5	–	63.9	0.38	185	0.31	1	91.2	41	0.37	–	–	–	–	–
Nc1cc(-c2ccnc3ccccc23)c[nH]c1=O [Compound 6]	17	–	41.7	0.33	76.3	0.31	26	30.2	69	0.34	–	–	–	–	–
CNc1nccc(-c2c[nH]c(=O)c(N)c2)n1 [Compound 7]	37	–	15.1	0.41	21.3	0.40	79	25.6	71	0.39	–	–	–	–	–
Nc1cc(-c2ccnc(NC3CC3)n2)c[nH]c1=O [Compound 8]	0	–	12	0.37	30.2	0.34	26	11	87	0.37	–	–	–	–	–
Cc1nc(O)c(N)cc1-c1ccncc1 [Compound 15, 3-Amino-6-methyl-5-(pyridin-4-yl)pyridin-2-one]	13	–	25.7	0.42	> 100	–	4	> 100	20	–	–	–	–	–	–
O=C(Nc1cc(-c2ccncc2)c[nH]c1=O)c1ccccc1 [Compound 16, N-(2-Oxo-5-(pyridin-4-yl)-1,2-dihydropyridin-3-yl)benzamide]	–	–	41	0.27	3.3	0.34	–	5.4	–	0.33	0	62	24	15	–
CN1CCN(c2ccc(C(=O)Nc3cc(-c4ccncc4)c[nH]c3=O)cc2)CC1 [Compound 22]	–	–	5.5	0.25	14.9	0.23	–	4.8	–	0.25	24	–	84	–	88
O=C(Nc1cc(-c2ccnc(NC3CC3)n2)c[nH]c1=O)c1ccccc1 [Compound 24]	–	–	3.6	0.28	17.3	0.25	–	3.2	–	0.29	0	76	0	–	–
